Like-named read-outs stand apart in the source and are kept apart here.
Experiments:
[1] = molecular target: T1, RORγ ligand binding domain (LBD) (Homo sapiens, UniProt P51449); test: TR-FRET Activity Assay (ligand sensing, RORγ-LBD / coactivator peptide interaction, LANCE); type: biochemical
T1 construct: made in house; host or cells: E. coli BL-21 (BL3), vector pDEST15
T1 sequence (P51449 269-508 limits assumed): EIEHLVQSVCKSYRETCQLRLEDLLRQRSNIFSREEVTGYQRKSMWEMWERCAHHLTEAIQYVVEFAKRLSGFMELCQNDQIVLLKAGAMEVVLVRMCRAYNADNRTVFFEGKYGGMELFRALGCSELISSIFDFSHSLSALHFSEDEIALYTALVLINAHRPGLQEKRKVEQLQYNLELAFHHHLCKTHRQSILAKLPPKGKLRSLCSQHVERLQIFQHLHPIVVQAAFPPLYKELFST

[2] = molecular target: T2, RORγ (UniProt P51449); test: RORγ Gal4 Reporter Gene Assay in 293T cells (firefly and renilla luciferase); type: cell-based, human
T2 sequence (P51449 1-518): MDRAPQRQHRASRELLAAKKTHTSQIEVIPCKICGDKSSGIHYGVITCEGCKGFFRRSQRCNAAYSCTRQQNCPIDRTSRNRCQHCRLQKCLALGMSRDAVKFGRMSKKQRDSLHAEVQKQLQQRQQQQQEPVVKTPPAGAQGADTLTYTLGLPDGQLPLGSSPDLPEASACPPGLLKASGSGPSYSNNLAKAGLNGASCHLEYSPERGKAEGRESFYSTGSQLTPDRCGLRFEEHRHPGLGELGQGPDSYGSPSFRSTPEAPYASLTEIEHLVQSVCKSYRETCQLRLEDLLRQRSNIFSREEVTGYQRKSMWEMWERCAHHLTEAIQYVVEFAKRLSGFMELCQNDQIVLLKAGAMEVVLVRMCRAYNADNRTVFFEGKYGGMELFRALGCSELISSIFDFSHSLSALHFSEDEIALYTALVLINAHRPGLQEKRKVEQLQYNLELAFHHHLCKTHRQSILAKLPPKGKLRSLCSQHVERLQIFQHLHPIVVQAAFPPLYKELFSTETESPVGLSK

[3] = first value of the cell FRET/FF/REN, TR-FRET activity assay, read-out: pIC50 (FRET) (converted)
[4] = second value of the cell, Gal4 reporter gene assay in 293T cells, firefly luciferase
[5] = third value of the cell, Gal4 reporter gene assay in 293T cells, renilla normalised luciferase

Row | Compound | IC50 [1, 3] | pIC50 (FF) [2, 4] | pIC50 (REN) [2, 5] | IC50 [1] | pIC50 (FF) [2] | pIC50 (REN) [2]
1 | Cc1c(C(=O)NCC2(C(N)=O)CCOCC2)cc(-c2ccc(S(=O)(=O)NC(C)(C)C)c(C(F)(F)F)c2)n1CC1CCCCC1 [17/203] | 501 nM | 7.8 | 7.8 |  |  | 
2 | Cc1c(C(=O)NC2COC2)cc(-c2cc(C(C)(C)C)cc(C(C)(C)C)c2)n1CC1CCCCC1 [1/53] |  |  |  | 158 nM | 6.8/7.3/7.4 | 6.8/7.3/7.4
3 | Cc1c(C(=O)NC[C@H](C)O)cc(-c2cc(C(C)(C)C)cc(C(C)(C)C)c2)n1CC1CCCCC1 [1/60] | 1000 nM | 6.2 | 6.2 |  |  | 
4 | Cc1c(C(=O)NCC(C)(C)C(=O)O)cc(-c2cc(C(=O)NC(C)(C)C)cc(C(C)(C)C)c2)n1CC1CCCCC1 [17/329] | 2510 nM | 6.8 | 6.9 |  |  | 
5 | COC(C)(c1cc(-c2cc(C(=O)NC3CCOCC3)c(C)n2CC2CCCCC2)cc(C(C)(C)C)c1)C(F)(F)F (stereo not drawn) [17/186] | 398 nM | 6.9 | 7.1 |  |  | 
6 | Cc1c(C(=O)NC2CCOCC2)cc(-c2ccc(S(=O)(=O)NC(C)C(C)(C)O)c(C(F)(F)F)c2)n1CC1CCCCC1 (stereo not drawn) [17/146] | 1000 nM | 7.4 | 7.5 |  |  | 
7 | Cc1c(C(=O)NCC(C)(C)c2nn[nH]n2)cc(-c2cc(C(C)(C)C)cc(C3(C)CC3)c2)n1CC1CCCCC1 [17/77] | 794 nM | 8.0 | 8.1 |  |  | 
8 | Cc1c(C(=O)NCC2(O)CCOCC2)cc(-c2cc(C(C)(C)C)c3c(c2)C2(CCO3)CC2)n1CC1CCCCC1 [1/99] |  |  |  | 398 nM | 6.4/7.1/7.2 | 6.4/7.1/7.2
9 | Cc1c(C(=O)NC[C@H]2CC[C@H](C(=O)O)CC2)cc(-c2cc(C(C)(C)C)c3c(c2)C2(CCO3)CC2)n1CC1CCCCC1 [17/59] |  |  |  | 2000 nM | 5.7/6.6/6.6 | 5.7/6.6/6.6
10 | Cc1c(C(=O)NCC2(C(=O)O)CCOCC2)cc(-c2cc(C(C)(C)C)cc(C3(C)CC3)c2)n1CC1CCCCC1 [17/61] | 1000 nM | 7.4 | 7.5 |  |  | 
11 | Cc1c(C(=O)N[C@H]2C[C@H](C(=O)O)C2)cc(-c2cc(C(C)(C)C)cc(C(F)(F)F)c2)n1CC1CCCCC1 [17/304] | 1580 nM | 7.2 | 7.3 |  |  | 
12 | Cc1c(C(=O)NCC(C)(C)O)cc(-c2cccc3c(S(=O)(=O)NC(C)(C)C)cccc23)n1CC1CCCCC1 [17/76] | 2000 nM | 6.9 | 6.9 |  |  | 
13 | Cc1c(C(=O)NCC(C)(C)NS(=O)(=O)C2CC2)cc(-c2cc(C(C)(C)C)c3c(c2)C2(CCO3)CC2)n1CC1CCCCC1 [17/33] | 631 nM | 7.1 | 7.2 |  |  | 
14 | Cc1c(C(=O)NC2COC2)cc(-c2cc(C(C)(C)C)cc(C(C)(C)C)c2)n1S(=O)(=O)N(C)C1CCCCC1 [7/5] |  |  |  | 316 nM | 6.5/6.3/6.4 | 6.5/6.3/6.4
15 | Cc1c(C(=O)NCCN2CCOCC2)cc(-c2ccc(S(=O)(=O)NC(C)(C)C)c(C(C)(C)C)c2)n1CC1CCCCC1 [1/11] | 2000 nM | 6.1 | 6.1 |  |  | 
16 | CC(C)(C)NS(=O)(=O)c1ccc(-c2cc(C(=O)NC3CCOCC3)c(CF)n2CC2CCCCC2)cc1C(C)(C)C [17/118] | 10000 nM | 6.3 | 6.5 |  |  | 
17 | Cc1c(C(=O)NC2CS(=O)(=O)C2)cc(-c2cc(C(C)(C)C)cc(C(C)(C)C)c2)n1CC1CCCCC1 [Example 3, 1-(Cyclohexylmethyl)-5-(3,5-di-tert-butylphenyl)-N-(1,1-dioxidothietan-3-yl)-2-methyl-1H-pyrrole-3-carboxamide] |  |  |  | 251 nM | 6.6/7.4/7.4 | 6.6/7.4/7.4

Row | Compound | IC50 [1, 3] | pIC50 (FF) [2, 4] | pIC50 (REN) [2, 5] | IC50 [1] | pIC50 (FF) [2] | pIC50 (REN) [2]
18 | Cc1c(C(=O)NCCC(C)(C)C(N)=O)cc(-c2cc(C(C)(C)C)cc(C3(C)CC3)c2)n1CC1CCCCC1 [17/74] |  |  |  | 501 nM | 6.3/7.3/7.2 | 6.3/7.3/7.2
19 | Cc1c(C(=O)NC2CCOCC2)cc(-c2ccc(S(=O)(=O)NC(C)(C)C)c(C(F)(F)F)c2F)n1CC1CCCCC1 [17/231] | 251 nM | 7.5 | 7.7 |  |  | 
20 | Cc1c(C(=O)NC2COC2)cc(-c2cc(C(C)(C)C)cc(C(C)(C)C)c2)n1S(=O)(=O)N1CCC2(CCCC2)C1 [7/6] | 398 nM | 6.6 | 6.5 |  |  | 
21 | Cc1c(C(=O)N[C@H]2C[C@H](C(=O)O)C2)cc(-c2ccc(S(=O)(=O)NC(C)(C)C)c(OC(F)(F)F)c2)n1CC1CCCCC1 [17/174] | 200 nM | 7.1 | 7.1 |  |  | 
22 | CC(C)(C)NS(=O)(=O)c1ccc(-c2cc(C(=O)NC3CCOCC3)c(CO)n2CC2CCCCC2)cc1C(C)(C)C [17/117] |  |  |  | 1000 nM | 6.0/7.6/7.7 | 6.0/7.6/7.7
23 | Cc1c(C(=O)NCC(C)(C)NC(=O)C(C)O)cc(-c2cc(C(C)(C)C)cc(C3(C)CC3)c2)n1CC1CCCCC1 (stereo not drawn) [17/121] | 316 nM | 7.6 | 7.7 |  |  | 
24 | Cc1c(C(=O)NC2CCOCC2)cc(-c2ccc(S(=O)(=O)NC3(C#N)CC3)c(C(F)(F)F)c2)n1CC1CCCCC1 [17/144] | 501 nM | 7.7 | 7.7 |  |  | 
25 | Cc1c(C(=O)NCCCN2CCOCC2)cc(-c2cc(C(C)(C)C)cc(C(C)(C)C)c2)n1CC1CCCCC1 [1/71] | 1260 nM | 5.8 | 5.9 |  |  | 
26 | Cc1c(C(=O)NC2(C)CCOCC2)cc(-c2ccc(S(=O)(=O)NC(C)(C)C)c(C(C)(C)C)c2)n1CC1CCCCC1 [17/206] |  |  |  | 631 nM | 6.2/7.0/7.2 | 6.2/7.0/7.2
27 | Cc1c(C(=O)NC2CCOCC2)cc(-c2ccc(S(=O)(=O)N3CCCCC3(C)C)c(C(F)(F)F)c2)n1CC1CCCCC1 [17/69] | > 20000 nM | 7.2 | 7.4 |  |  | 
28 | Cc1c(C(=O)NCC(C)(C)C(=O)O)cc(-c2ccc(S(=O)(=O)NC(C)(C)C)c(C(F)F)c2)n1CC1CCCCC1 [17/127] | 316 nM | 7.1 | 7.2 |  |  | 
29 | Cc1c(C(=O)NCC2(C(=O)O)CCOCC2)cc(-c2cc(C(C)(C)C)c3c(c2)C2(CCO3)CC2)n1CC1CCCCC1 [17/40] | 1260 nM | 6.9 | 6.8 |  |  | 
30 | Cc1c(C(=O)NC2CCOCC2)cc(-c2cc(C(=O)NC(C)(C)C)cc3ccccc23)n1CC1CCCCC1 [17/188] | 794 nM | 6.8 | 6.9 |  |  | 
31 | Cc1c(C(=O)N[C@H]2C[C@](C)(C(=O)O)C2)cc(-c2ccc(S(=O)(=O)NC(C)(C)C)c(C(F)F)c2)n1CC1CCCCC1 [17/170] | 316 nM | 6.8 | 7.0 |  |  | 
32 | Cc1c(C(=O)NCC2(C(N)=O)CCOCC2)cc(-c2ccc(S(=O)(=O)NC(C)(C)C)c3ccccc23)n1CC1CCCCC1 [17/267] | 794 nM | 7.9 | 8.0 |  |  | 
33 | COC(C)(C)CNC(=O)c1cc(-c2cc(C(C)(C)C)cc(C(C)(C)C)c2)n(CC2CCCCC2)c1C [1/35] |  |  |  | 126 nM | 6.9/6.9/6.9 | 6.9/6.9/6.9
34 | Cc1c(-c2cc(C(=O)NCC(C)(C)O)c(C)n2CC2CCCCC2)nc(C2(C)CC2)nc1C(C)(C)C [17/82] | 794 nM | 6.7 | 6.7 |  |  | 

From patent US9815851B2, “Pyrrolo carboxamides as modulators of orphan nuclear receptor RAR-related orphan receptor-gamma (RORγ, NR1F3) activity and for the treatment of chronic inflammatory and autoimmune diseases” (PHENEX PHARMACEUTICALS AG, priority 2011, dated 2017)
